According to ChEMBL document CHEMBL1140252, “Deoxyribosyl analogues of methionyl and isoleucyl sulfamate adenylates as inhibitors of methionyl-tRNA and isoleucyl-tRNA synthetases” (Bioorg Med Chem Lett, 2005):

Each compound was assayed against Methionine--tRNA ligase (Escherichia coli K-12, UniProt P00959) (assay: Inhibitory concentration against Escherichia coli Met-tRNA synthetase).
Methionine--tRNA ligase, sequence (P00959 whole entry): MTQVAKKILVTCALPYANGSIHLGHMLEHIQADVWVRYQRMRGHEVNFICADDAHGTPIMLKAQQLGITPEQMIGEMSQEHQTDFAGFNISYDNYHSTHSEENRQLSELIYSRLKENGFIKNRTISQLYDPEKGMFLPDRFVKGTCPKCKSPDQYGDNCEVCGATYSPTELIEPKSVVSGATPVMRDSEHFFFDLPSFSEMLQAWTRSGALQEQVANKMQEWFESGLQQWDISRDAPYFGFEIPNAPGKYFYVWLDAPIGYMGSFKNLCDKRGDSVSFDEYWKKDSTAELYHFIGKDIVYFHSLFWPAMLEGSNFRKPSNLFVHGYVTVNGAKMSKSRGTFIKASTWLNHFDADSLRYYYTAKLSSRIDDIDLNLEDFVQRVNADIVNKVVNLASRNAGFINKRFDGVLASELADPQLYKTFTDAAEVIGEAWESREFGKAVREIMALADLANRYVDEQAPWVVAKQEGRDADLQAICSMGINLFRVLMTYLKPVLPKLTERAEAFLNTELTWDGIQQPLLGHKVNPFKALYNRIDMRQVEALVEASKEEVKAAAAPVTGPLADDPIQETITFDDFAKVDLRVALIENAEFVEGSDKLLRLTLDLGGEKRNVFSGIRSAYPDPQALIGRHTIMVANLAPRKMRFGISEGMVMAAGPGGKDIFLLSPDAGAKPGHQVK

IC50 [µM] | Compound
0.083 | CSCC[C@H](N)C(=O)NS(=O)(=O)OC[C@H]1O[C@@H](n2cnc3c(N)ncnc32)[C@H](O)[C@@H]1O
0.383 | CSCC[C@H](N)C(=O)NS(=O)(=O)O[C@@H]1CC[C@H](n2cnc3c(N)nnnc32)O1

Second part, the compound before the results:

Compound | IC50 [µM]
CSCC[C@H](N)C(=O)NS(=O)(=O)OC[C@H]1O[C@@H](n2cnc3c(N)ncnc32)C[C@@H]1O | 110
CSCC[C@H](N)C(=O)NS(=O)(=O)OC[C@@H]1C[C@@H](O)[C@H](n2cnc3c(N)ncnc32)O1 | 220

What follows are compounds tested against Isoleucine--tRNA ligase (Escherichia coli K-12, UniProt P00956) (assay: Inhibitory concentration against Escherichia coli Ile-tRNA synthetase).
Isoleucine--tRNA ligase, sequence (P00956 whole entry): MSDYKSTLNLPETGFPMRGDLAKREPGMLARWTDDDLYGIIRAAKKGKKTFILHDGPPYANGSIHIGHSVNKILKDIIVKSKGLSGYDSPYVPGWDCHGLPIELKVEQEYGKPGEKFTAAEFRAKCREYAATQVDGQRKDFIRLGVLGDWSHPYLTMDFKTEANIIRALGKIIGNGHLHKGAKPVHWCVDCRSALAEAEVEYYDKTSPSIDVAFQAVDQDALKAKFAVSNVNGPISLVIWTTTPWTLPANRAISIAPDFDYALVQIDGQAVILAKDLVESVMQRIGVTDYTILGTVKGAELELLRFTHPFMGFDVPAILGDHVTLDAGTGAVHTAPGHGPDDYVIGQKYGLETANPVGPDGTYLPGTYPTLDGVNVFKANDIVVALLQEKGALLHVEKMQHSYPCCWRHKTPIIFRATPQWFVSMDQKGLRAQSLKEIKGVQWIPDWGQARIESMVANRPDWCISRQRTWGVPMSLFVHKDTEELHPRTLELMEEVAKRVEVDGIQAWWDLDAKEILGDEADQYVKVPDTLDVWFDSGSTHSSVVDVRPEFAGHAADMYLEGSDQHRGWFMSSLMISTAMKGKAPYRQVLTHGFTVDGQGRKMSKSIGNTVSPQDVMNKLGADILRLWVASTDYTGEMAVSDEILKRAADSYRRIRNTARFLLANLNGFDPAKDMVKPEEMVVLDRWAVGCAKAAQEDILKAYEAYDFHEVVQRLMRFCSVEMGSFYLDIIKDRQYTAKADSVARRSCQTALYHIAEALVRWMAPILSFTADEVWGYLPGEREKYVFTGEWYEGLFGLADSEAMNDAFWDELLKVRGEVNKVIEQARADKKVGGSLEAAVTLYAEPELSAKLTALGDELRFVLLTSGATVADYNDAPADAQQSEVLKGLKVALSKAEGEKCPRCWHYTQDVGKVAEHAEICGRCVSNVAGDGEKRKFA

IC50 [µM] | Compound
35 | CC[C@H](C)[C@H](N)C(=O)NS(=O)(=O)OC[C@@H]1C[C@@H](O)[C@H](n2cnc3c(N)ncnc32)O1
6.4 | CC[C@H](C)[C@H](N)C(=O)NS(=O)(=O)OC[C@@H]1CC[C@H](n2cnc3c(N)ncnc32)O1

Further lines, the compound ahead of its results:

Compound | IC50 [µM]
CC[C@H](C)[C@H](N)C(=O)NS(=O)(=O)O[C@H]1O[C@@H](n2cnc3c(N)ncnc32)C[C@@H]1O | 280
CC[C@H](C)[C@H](N)C(=O)NS(=O)(=O)OC[C@H]1O[C@@H](n2cnc3c(N)ncnc32)[C@H](O)[C@@H]1O | 0.265
